Assay results reported in ChEMBL document CHEMBL1649488, “In vitro activities of echinocandins against Candida krusei determined by three methods: MIC and minimal fungicidal concentration measurements and time-kill studies” (2009).
Converted amounts (≈) assume the structure as drawn. The source made the active and inactive calls. The calls are words filed in the database; no cut-off is given here.

What was measured:
Assay type in all cases: functional
Pichia kudriavzevii [1] = experiment: Antifungal activity against Candida krusei ATCC 6258 bloodstream forms assessed as minimum concentration producing >= 100% growth reduction after 24 hrs by M27-A3 microdilution method; conditions: ATCC 6258, 24 h
Pichia kudriavzevii [2] = experiment: Fungicidal activity against Candida krusei ATCC 6258 bloodstream forms after 48 hrs by M27-A3 microdilution method
Pichia kudriavzevii [3] = experiment: Antifungal activity against Candida krusei ATCC 6258 bloodstream forms assessed as minimum concentration producing >= 50% growth reduction after 24 hrs by M27-A3 microdilution method; conditions: ATCC 6258, 24 h
Pichia kudriavzevii [4] = experiment: Antifungal activity against Candida krusei CK1 bloodstream forms after 24 hrs by time-kill analysis; conditions: CK1, 24 h
Pichia kudriavzevii [5] = experiment: Fungicidal activity against Candida krusei CK1 bloodstream forms after 24 hrs by time-kill analysis; conditions: CK1, 24 h
Pichia kudriavzevii [6] = experiment: Antifungal activity against Candida krusei CK2 bloodstream forms after 24 hrs by time-kill analysis; conditions: CK2, 24 h
Pichia kudriavzevii [7] = experiment: Fungicidal activity against Candida krusei CK2 bloodstream forms after 24 hrs by time-kill analysis; conditions: CK2, 24 h
Pichia kudriavzevii [8] = experiment: Antifungal activity against Candida krusei CK6 bloodstream forms after 24 hrs by time-kill analysis; conditions: CK6, 24 h
Pichia kudriavzevii [9] = experiment: Fungicidal activity against Candida krusei CK6 bloodstream forms after 24 hrs by time-kill analysis; conditions: CK6, 24 h
Pichia kudriavzevii [10] = experiment: Antifungal activity against Candida krusei CK18 bloodstream forms after 24 hrs by time-kill analysis; conditions: CK18, 24 h
Pichia kudriavzevii [11] = experiment: Fungicidal activity against Candida krusei CK18 bloodstream forms after 24 hrs by time-kill analysis; conditions: CK18, 24 h
Pichia kudriavzevii [12] = experiment: Antifungal activity against Candida krusei EU123 bloodstream forms after 24 hrs by time-kill analysis; conditions: EU123, 24 h
Pichia kudriavzevii [13] = experiment: Fungicidal activity against Candida krusei EU123 bloodstream forms after 24 hrs by time-kill analysis; conditions: EU123, 24 h
Pichia kudriavzevii [14] = experiment: Antifungal activity against Candida krusei EU220 bloodstream forms after 24 hrs by time-kill analysis; conditions: EU220, 24 h
Pichia kudriavzevii [15] = experiment: Fungicidal activity against Candida krusei EU220 bloodstream forms after 24 hrs by time-kill analysis; conditions: EU220, 24 h
Pichia kudriavzevii [16] = experiment: Antifungal activity against Candida krusei CY118 bloodstream forms after 24 hrs by time-kill analysis; conditions: CY118, 24 h
Pichia kudriavzevii [17] = experiment: Fungicidal activity against Candida krusei CY118 bloodstream forms after 24 hrs by time-kill analysis; conditions: CY118, 24 h
Pichia kudriavzevii [18] = experiment: Antifungal activity against Candida krusei ATCC 6258 bloodstream forms after 24 hrs by time-kill analysis; conditions: ATCC 6258, 24 h
Pichia kudriavzevii [19] = experiment: Fungicidal activity against Candida krusei ATCC 6258 bloodstream forms after 24 hrs by time-kill analysis; conditions: ATCC 6258, 24 h
Pichia kudriavzevii [20] = experiment: Antifungal activity against Candida krusei ATCC 6258 bloodstream forms assessed as time to achieve 50% fungal growth reduction at 0.12 mg/L by time-kill analysis
Pichia kudriavzevii [21] = experiment: Antifungal activity against Candida krusei ATCC 6258 bloodstream forms assessed as time to achieve 90% fungal growth reduction at 0.12 mg/L by time-kill analysis
Pichia kudriavzevii [22] = experiment: Antifungal activity against Candida krusei ATCC 6258 bloodstream forms assessed as time to achieve 99% fungal growth reduction at 0.12 mg/L by time-kill analysis
Pichia kudriavzevii [23] = experiment: Antifungal activity against Candida krusei ATCC 6258 bloodstream forms assessed as time to achieve 99.9% fungal growth reduction at 0.12 mg/L by time-kill analysis
Pichia kudriavzevii [24] = experiment: Antifungal activity against Candida krusei ATCC 6258 bloodstream forms assessed as time to achieve 50% fungal growth reduction at 0.5 mg/L by time-kill analysis
Pichia kudriavzevii [25] = experiment: Antifungal activity against Candida krusei ATCC 6258 bloodstream forms assessed as time to achieve 90% fungal growth reduction at 0.5 mg/L by time-kill analysis
Pichia kudriavzevii [26] = experiment: Antifungal activity against Candida krusei ATCC 6258 bloodstream forms assessed as time to achieve 99% fungal growth reduction at 0.5 mg/L by time-kill analysis
Pichia kudriavzevii [27] = experiment: Antifungal activity against Candida krusei ATCC 6258 bloodstream forms assessed as time to achieve 99.9% fungal growth reduction at 0.5 mg/L by time-kill analysis
Pichia kudriavzevii [28] = experiment: Antifungal activity against Candida krusei ATCC 6258 bloodstream forms assessed as time to achieve 50% fungal growth reduction at 2 mg/L by time-kill analysis
Pichia kudriavzevii [29] = experiment: Antifungal activity against Candida krusei ATCC 6258 bloodstream forms assessed as time to achieve 90% fungal growth reduction at 2 mg/L by time-kill analysis
Pichia kudriavzevii [30] = experiment: Antifungal activity against Candida krusei ATCC 6258 bloodstream forms assessed as time to achieve 99% fungal growth reduction at 2 mg/L by time-kill analysis
Pichia kudriavzevii [31] = experiment: Antifungal activity against Candida krusei ATCC 6258 bloodstream forms assessed as time to achieve 99.9% fungal growth reduction at 2 mg/L by time-kill analysis
Pichia kudriavzevii [32] = experiment: Antifungal activity against Candida krusei ATCC 6258 bloodstream forms assessed as time to achieve 50% fungal growth reduction at 8 mg/L by time-kill analysis
Pichia kudriavzevii [33] = experiment: Antifungal activity against Candida krusei ATCC 6258 bloodstream forms assessed as time to achieve 90% fungal growth reduction at 8 mg/L by time-kill analysis
Pichia kudriavzevii [34] = experiment: Antifungal activity against Candida krusei ATCC 6258 bloodstream forms assessed as time to achieve 99% fungal growth reduction at 8 mg/L by time-kill analysis
Pichia kudriavzevii [35] = experiment: Antifungal activity against Candida krusei ATCC 6258 bloodstream forms assessed as time to achieve 99.9% fungal growth reduction at 8 mg/L by time-kill analysis
Pichia kudriavzevii [36] = experiment: Antifungal activity against Candida krusei ATCC 6258 bloodstream forms assessed as time to achieve 50% fungal growth reduction at 32 mg/L by time-kill analysis
Pichia kudriavzevii [37] = experiment: Antifungal activity against Candida krusei ATCC 6258 bloodstream forms assessed as time to achieve 90% fungal growth reduction at 32 mg/L by time-kill analysis
Pichia kudriavzevii [38] = experiment: Antifungal activity against Candida krusei ATCC 6258 bloodstream forms assessed as time to achieve 99% fungal growth reduction at 32 mg/L by time-kill analysis
Pichia kudriavzevii [39] = experiment: Antifungal activity against Candida krusei ATCC 6258 bloodstream forms assessed as time to achieve 99.9% fungal growth reduction at 32 mg/L by time-kill analysis
Pichia kudriavzevii [40] = experiment: Antifungal activity against Candida krusei ATCC 6258 bloodstream forms assessed as minimum concentration producing >= 50% growth reduction after 48 hrs by M27-A3 microdilution method; conditions: ATCC 6258, 48 h
Pichia kudriavzevii [41] = experiment: Antifungal activity against Candida krusei ATCC 6258 bloodstream forms assessed as minimum concentration producing >= 100% growth reduction after 48 hrs by M27-A3 microdilution method; conditions: ATCC 6258, 48 h

In the case of `CC[C@H](C)C[C@H](C)CCCCCCCCC(=O)N[C@H]1C[C@@H](O)[C@@H](NCCN)NC(=O)[C@@H]2[C@@H](O)CCN2C(=O)[C@H]([C@H](O)CCN)NC(=O)[C@H]([C@H](O)[C@@H](O)c2ccc(O)cc2)NC(=O)[C@@H]2C[C@@H](O)CN2C(=O)[C@H]([C@@H](C)O)NC1=O` [CASPOFUNGIN], the MIC50 (Pichia kudriavzevii [1]) is reported as 1 µg/mL (≈ 0.915 µM), the MIC90 (Pichia kudriavzevii [1]) is reported as 2 µg/mL (≈ 1.83 µM) and the MFC50 (Pichia kudriavzevii [2]) is reported as 2 µg/mL (≈ 1.83 µM). For the same compound, the MFC90 (Pichia kudriavzevii [2]) was 8 µg/mL (≈ 7.32 µM), the MFC (Pichia kudriavzevii [2]; Pichia kudriavzevii, ATCC 6258, 48 h) was 1 µg/mL (≈ 0.915 µM) and the MIC50 (Pichia kudriavzevii [3]) was 1 µg/mL (≈ 0.915 µM). For the same compound, the MIC90 (Pichia kudriavzevii [3]) was 2 µg/mL (≈ 1.83 µM), the MIC (Pichia kudriavzevii [4]) was 1 µg/mL (≈ 0.915 µM) and the MFC (Pichia kudriavzevii [5]) was 8 µg/mL (≈ 7.32 µM). For the same compound, the MIC (Pichia kudriavzevii [6]) was 1 µg/mL (≈ 0.915 µM), the MFC (Pichia kudriavzevii [7]) was 1 µg/mL (≈ 0.915 µM) and the MIC (Pichia kudriavzevii [8]) was 1 µg/mL (≈ 0.915 µM). The MFC (Pichia kudriavzevii [9]) was 1 µg/mL (≈ 0.915 µM), the MIC (Pichia kudriavzevii [10]) was 1 µg/mL (≈ 0.915 µM) and the MFC (Pichia kudriavzevii [11]) was 2 µg/mL (≈ 1.83 µM). For the same compound, the MIC (Pichia kudriavzevii [12]) was 2 µg/mL (≈ 1.83 µM), the MFC (Pichia kudriavzevii [13]) was 2 µg/mL (≈ 1.83 µM) and the MIC (Pichia kudriavzevii [14]) was 2 µg/mL (≈ 1.83 µM). The MFC (Pichia kudriavzevii [15]) was 2 µg/mL (≈ 1.83 µM), the MIC (Pichia kudriavzevii [16]) was 4 µg/mL (≈ 3.66 µM) and the MFC (Pichia kudriavzevii [17]) was over 64 µg/mL. The MIC (Pichia kudriavzevii [18]) was 1 µg/mL (≈ 0.915 µM), the MFC (Pichia kudriavzevii [19]) was 2 µg/mL (≈ 1.83 µM) and the Activity (Pichia kudriavzevii [20]) was “inactive”. The Activity (Pichia kudriavzevii [21]) was “inactive”, the Activity (Pichia kudriavzevii [22]) was “inactive” and the Activity (Pichia kudriavzevii [23]) was “inactive”. The Time (Pichia kudriavzevii [24]) was 8.3 h, the Time (Pichia kudriavzevii [25]) was 27.6 h and the Time (Pichia kudriavzevii [26]) was over 48 h. For the same compound, the Time (Pichia kudriavzevii [27]) was over 48 h, the Time (Pichia kudriavzevii [28]) was 3.7 h and the Time (Pichia kudriavzevii [29]) was 12.5 h. For the same compound, the Time (Pichia kudriavzevii [30]) was 24.9 h, the Time (Pichia kudriavzevii [31]) was 37.4 h and the Time (Pichia kudriavzevii [32]) was 2.9 h. The Time (Pichia kudriavzevii [33]) was 9.7 h, the Time (Pichia kudriavzevii [34]) was 19.5 h and the Time (Pichia kudriavzevii [35]) was 29.2 h. It also gave a Time (Pichia kudriavzevii [36]) of 2.1 h, a Time (Pichia kudriavzevii [37]) of 7.1 h and a Time (Pichia kudriavzevii [38]) of 14.3 h. The Time (Pichia kudriavzevii [39]) was 21.4 h, the MIC50 (Pichia kudriavzevii [40]) was 1 µg/mL (≈ 0.915 µM) and the MIC90 (Pichia kudriavzevii [40]) was 2 µg/mL (≈ 1.83 µM). The MIC (Pichia kudriavzevii [41]) was 0.8 µg/mL (≈ 0.732 µM), the MIC50 (Pichia kudriavzevii [41]) was 1 µg/mL (≈ 0.915 µM) and the MIC90 (Pichia kudriavzevii [41]) was 2 µg/mL (≈ 1.83 µM).
